Entries after “also recorded” stand apart in the source; their conditions may differ. Like-named read-outs stand apart in the source and are kept apart here. Marks after values point to notes of the source that are not given here.
Experiments:
[1] = tested on: CQ-resistant (Dd2) strain of P. falciparum; details: value reported from another study; cited from earlier work
[2] = tested on: CQ-resistant (Dd2) strain of P. falciparum; test: In vitro antiplasmodial activity, SYBR Green I fluorescence assay, Dd2 strain; format: cell-based, Plasmodium falciparum; details: for RI, resistance index = [IC50 (Dd2)/IC50 (3D7)]: Dd2 versus 3D7
Procedure: (§1) A set of 104 new styrylquinoline derivatives were synthesized and investigated for in vitro their antimalarial activity. To test antimalarial activities, different dilutions of compounds were added to P. falciparum culture. Following 72 h incubation at 37° C. in an atmosphere containing 5% CO2, the inhibitory property of the compounds were determined by SYBR Green I fluorescence assay. Meanwhile, SARs studies were conducted.
The SAR studies were focused on improving the in vitro activity of 2-arylvinylquinolines against the CQ-resistant Pf Dd2 strain.

[3] = tested on: P. falciparum 3D7 strain (CQ-sensitive); test: In vitro antiplasmodium activity, 3D7 strain; format: cell-based, Plasmodium falciparum; details: Plasmodium falciparum, 3D7; Table 6A, nM; footnote calls it IC50; read-out: Antiplasmodium activity 3D7 (converted)
Procedure: as §1

[4] = Cytotoxicity assay using MTS in human hepatocytes; format: cell-based; details: human, HepG2 cells (human hepatocytes); Table 6B, unit inferred; footnote IC50 (HepG2); read-out: Cytotoxic activity HepG2 (converted)
[5] = tested on: HepG2; test: Cytotoxicity assay using MTS in human hepatocytes; format: cell-based; details: HepG2 versus Dd2
[6] = In vitro microsomal turnover assay (metabolic stability); details: mouse; for Clint / % remaining after 60 min: microsomes; for % remaining after 60 min: 1 h
Procedure: Selectivity of compounds were determined by cytoxicity assay using MTS [(3-(4,5-dimethylthiazol-2-yl)-5-(3-carboxymethoxyphenyl)-2-(4-sulfophenyl)-2H-tetrazolium) in human hepatocytes. The metabolic stability of compounds was determined in mouse liver microsomes using an NADPH-regenerating system. The aqueous solubility at pH 7.4 was determined by UV-visible absorption based method. The permeability was assessed by the in vitro double-sink parallel artificial membrane permeability assay 52 that is a model for the passive transport from the gastrointestinal tract into the blood stream.
To assess the metabolic stability, the selected compounds were subjected to an in vitro microsomal turnover assay with mouse liver microsomal preparations. This assay determines the percentage of the parent compound residues after 60 min incubation (Table 7).

[7] = tested on: early stage (I-III) gametocytes of 3D7 expressing luciferase parasite; test: In vitro gametocytocidal activity, early stage; format: cell-based, Plasmodium falciparum; details: Plasmodium falciparum
Description: (§2) Late stage (IV-V) gametocytes are more refractory to antimalarial drugs than early-stage gametocytes and blood stage parasites, and thus fewer compounds are effective against late stage Pf gametocytes. […] FIGS. 4A and 4B are an examples according to various embodiments illustrating results showing the activity of compound 24 on gametocyte stages, based on an evaluation of the viability of gametocytes after the exposure of compound 24 on early (A) and late (B) gametocytes stages of 3D7 expressing luciferase parasite. In FIGS. 4A and 4B, EC50 data represent the means and SEMs of three experiments. Therefore, arylvinylquinolines represented good leads as new antimalarials with promising dual stage (blood and gametocyte) activity.

[8] = tested on: late stage (IV-V) gametocytes of 3D7 expressing luciferase parasite; test: In vitro gametocytocidal activity, late stage; format: cell-based, Plasmodium falciparum; details: Plasmodium falciparum, 3D7
Description: as §2

[9] = tested on: β-hematin crystal formation; test: β-hematin inhibition experiment; format: biochemical; details: 100 μM hemin, 16 h at 37° C., up to 200 μM compound
Procedure: CQ and other aminoquinolines are known to fight against the malaria parasites by blocking hematin biocrystallization (hemozoin formation) through π-π stacking between the aminoquinoline scaffold and the heme. As a result, the accumulated toxic heme causes the parasite death by introducing oxidative membrane damage. β-hematin inhibition experiments were performed to determine possible mode of actions of arylvinylquinolines. FIG. 5A is an example according to various embodiments illustrating images of β-hematin crystals after incubation of 100 μM hemin, propionate buffer, phosphatidylcholine and, several concentrations of compound for 16 h at 37° C. […] In FIGS. 5A and 5B, the data are mean±SEM.

[10] = tested on: tightly synchronized Dd2 parasites; test: Developmental stage specific action (Giemsa microscopy and flow cytometry); format: cell-based, Plasmodium falciparum; details: 5×EC50, treated at 6, 18, 30 and 42 h post-invasion
Procedure: Accurate definition of the timing of action of antimalarial agents could give valuable insights into the developmental growth and clinical clearance of the parasite. To further understand the antimalarial activity of arylvinylquinolines, the developmental stage specific action of the most promising compound 24 was determined by both microscopy and flow cytometry analysis. Tightly synchronized cultures were exposed to 5×EC50 concentration of compound 24 at 6, 18, 30 and 42 hours post-invasion (HPI) of the merozoites. Microscopic analysis of Giemsa-stained-thin smears and flow cytometric evaluation were performed at 12 h intervals.
In FIGS. 2A and 2B, the results are representative of three independent biological replicates.

[11] = tested on: asynchronous Dd2 parasite cultures; test: Kill kinetic experiments (rate of killing, parasitocidal/parasitostatic); format: cell-based, Plasmodium falciparum; details: 5×EC50 (Atovaquone 6.6 nM) for 6, 12, 24 and 48 h
Procedure: To study whether arylvinylquinolines exerted their antiplasmodial activity through a parasitocidal or parasitostatic mechanism, kill kinetic experiments in Dd2 strain were performed. […] After washing to remove the inhibitors at these time points, the growth of the cultures was continued to be assessed for 96 h.
FIGS. 3A, 3B, 3C, and 3D are examples according to various embodiments illustrating rate of killing and parasitocidal/parasitostatic activity determination of arylvinylquinolines. […] After each exposure, cultures were washed three times in RPMI, resuspended in culture media, and monitored for parasite growth daily for 4 days. DHA and Atovaquone (50 nM and 6.6 nM) were included as fast and slow acting controls, respectively. Parasitemia was determined by microscopy of Giemsa stained smear.

[12] = tested on: P. berghei ANKA strain expressing luciferase; test: Rodent malaria model, Peters' four-day test with IVIS luminescence; format: in vivo; details: once daily, po
Procedure: Phosphate salts of 24, 29 and 88 were assessed (referred to hereinafter as 24 s, 29 s, and 88 s) in female Swiss Webster mice infected with P. berghei ANKA strain since this strain produced histopathological and immunopathological features which were particularly similar to human cerebral malaria. […] FIG. 6B is an example according to various embodiments illustrating a chart showing the luminescence detected and quantified 7 days after infection of the Swiss Webster females shown in FIG. 6A, using an in vivo imaging system (IVIS). […] As observed from FIG. 6A-B, all these compounds completely cured malaria infection in mice when exposed to 100 mg/kg daily by p.o. administration in a standard Peters' four-day test, and no parasites visible in any of the tested mice were observed. […] Actually, this signal can also arise from dying parasites.

[13] = tested on: P. berghei ANKA strain expressing luciferase; test: Survival of P. berghei ANKA infected mice (30 days)
Procedure: In light of in vitro metabolic stability and in vivo efficacy mentioned above, compound 24 s was also administered at 100 and 25 mg/kg to malaria infected mice, and the survival rate was evaluated for 30 days. […] BALB/c females were infected with P. berghei ANKA strain expressing luciferase and treated 4 h post-infection with 25 and 100 mg/kg orally once daily for 4 days.

[14] = mouse liver microsomes; value reported from an initial study; cited from earlier work
[15] = tested on: malaria infection in mice; details: cited from earlier work
[16] = Plasmodium falciparum, DD2, Table 6A, unit not given (text gives nM), footnote calls it IC50, read-out: Antiplasmodium activity Dd2 (converted)
[17] = Plasmodium falciparum, CQ-resistant (Dd2) strain, 72 h incubation, read-out: EC50 (nmol)
[18] = Plasmodium falciparum, Dd2 strain, read-out: EC50

## C[C@@H]1CC[C@H]2[C@@H](C)C(=O)O[C@@H]3O[C@@]4(C)CC[C@@H]1[C@]32OO4 [Artemisinin]
[1]
  EC50: 28 ± 6 nM

## CN(C)CCNc1cc(/C=C/c2ccc(C(F)(F)F)cc2)nc2ccc(Cl)cc12 [Compound 24]
[2]
  RI, resistance index = [IC50 (Dd2)/IC50 (3D7)]: 0.6
[2]; [16]
  EC50: 10.9 ± 1.9 nM
[2]; [17]
  EC50: 10.9 ± 1.9 nM
[2]; Plasmodium falciparum, Dd2 strain
  IC50: ≤ 15 nM
[2]; [18]
  EC50: ≤ 15 nM
[3]
  EC50: 16.8 ± 0.8 nM
[4]
  IC50: 11200 ± 1860 nM
[5]
  SI, selectivity index = [IC50 (HepG2)/IC50 (Dd2)]: 1031
[6]
  Projected t1/2: 1.737 h
  Clint: 13.3 µL/min/mg
  % remaining after 60 min: 67.1%
[7]; 3D7, read-out: Early stage IC50 (nM)
  IC50: 472 ± 18.4 nM
[7]; 3D7, read-out: Pf Gametocyte EC50 (early stage)
  EC50: 472 ± 18.4 nM
[8]; late stage gametocytes, means and SEMs of three experiments
  IC50: 394 ± 99.4 nM
[8]; read-out: Pf Gametocyte EC50 (late stage)
  EC50: 394 ± 99.4 nM
[9]
  inhibitory activity towards β-hematin formation: weaker inhibitory activity; also recorded: very low activity
[10]
  stage-specific inhibition of P. falciparum growth: blocked at the trophozoite stage
[11]
  rate of killing (parasitemia after exposure and wash-out): remarkable reduction in parasitemias
[12]
  in vivo efficacy (efficacious dose): 25 mg/kg
[13]; 25 mg/kg, po
  mice with 100% reduction of parasitemia: 3/4
[13]; 100 mg/kg, p.o.
  mice with 100% reduction of parasitemia: 5/5
[13]; infected mice, 25 and 100 mg/kg p.o.
  tolerability / signs of toxicity: without apparent signs of toxicity

## CCN(CC)CCCC(C)Nc1cc(/C=C/c2ccc([N+](=O)[O-])cc2)nc2ccc(OC)cc12 (centres unmarked) [Compound according to Formula 1, reference compound]
[2]
  RI, resistance index = [IC50 (Dd2)/IC50 (3D7)]: 0.6
[2]; [16]
  EC50: 67 ± 8 nM
[2]; [17]
  EC50: 67 ± 8 nM
[2]; [18]
  EC50: 67 ± 8 nM
[3]
  EC50: 119 ± 3 nM
[4]
  IC50: 12920 ± 70.1 nM
[5]
  SI, selectivity index = [IC50 (HepG2)/IC50 (Dd2)]: 193
[5]; listed as Compd. of Formula 1
  SI, selectivity index = [IC50 (HepG2)/IC50 (Dd2)]: 192
[6]
  Projected t1/2: 0.692 h
  Clint: 33.4 µL/min/mg
  % remaining after 60 min: 36.7%
[14]
  % remaining after 60 min: 47.8^a %
  Projected t1/2 (min): 56.2^a min
[15]; 100 mg/kg twice daily po, previous study
  mice cured of malaria infection: 4/5
[15]; twice daily, po
  in vivo efficacy (efficacious dose): 100 mg/kg
